Where a SMILES comes first, the peptide text is derived from it. Bridges are numbered along the chain shown (N, C = ends). [ ]: non-standard residue; d: D form. Phe(4-COOH) = N[C@@H](Cc1ccc(C(=O)O)cc1)C(=O)O; R8 = C=CCCCCCC[C@@](C)(N)C(=O)O; Cba = N[C@@H](CC1CCC1)C(=O)O; S5 = C=CCCC[C@](C)(N)C(=O)O

As usually defined, the IC50 is the concentration needed to halve the response being measured. Broadly, the Ki is a measure of affinity in units of concentration, obtained from inhibition or displacement.

In one data set the test system is Caspase 3. As to the kind of experiment: Caspase 3 detection assay in SJSA1 cells. In kind it is cell-based. To be noted: 48 h, Caspase 3 activation over DMSO-treated cells; for caspase 0.3 uM: 0.3 uM peptide; for caspase 3 uM: 3 uM peptide; for caspase 10 uM: 10 uM peptide; for caspase 30 uM: 30 uM peptide; for caspase 1 uM: 1 uM peptide.
The test system of another data set is SJSA-1 cells. As to the kind of experiment: Cell lysis by peptidomimetic macrocycles (LDH release). Format: cell-based. Conditions: 1 h at 37C.
The nature of data set [1]: Circular dichroism (CD) analysis of alpha-helicity. Conditions: for Molar Ellipticity 50% TFE (222 in 50% TFE): CD buffer with 50% TFE; for Molar Ellipticity 50% TFE (222 in 50% TFE) / Molar Ellipticity Benign (222 in 0% TFE): 222 nm, 4° C.; for Molar Ellipticity Benign (222 in 0% TFE): benign CD buffer pH 2, 0% TFE; for % Helix benign compared to 50% TFE parent (CD): benign buffer; for Molar Ellipticity TFE-Molar Ellipticity Benign: difference 50% TFE minus benign. Format: physicochemical. On the technique in general: Circular dichroism is widely used to follow secondary structure.
Description: To assay the helicity of peptidomimetic macrocycles, the compounds are dissolved in an aqueous solution (e.g. 50 mM potassium phosphate solution at pH 7, or distilled H2O, to concentrations of 25-50 μM). Circular dichroism (CD) spectra are obtained on a spectropolarimeter (e.g., Jasco J-710) using standard measurement parameters (e.g. temperature, 20° C.; wavelength, 190-260 nm; step resolution, 0.5 nm; speed, 20 nm/sec; accumulations, 10; response, 1 sec; bandwidth, 1 nm; path length, 0.1 cm). […] A Peltier temperature controller was used to maintain temperature control of the optical cell. Results are expressed as mean molar ellipticity [0] […] Peptide concentrations were determined by amino acid analysis. Stock solutions of peptides were prepared in benign CD buffer (20 mM phosphoric acid, pH 2). The stocks were used to prepare peptide solutions of 0.05 mg/ml in either benign CD buffer or CD buffer with 50% trifluoroethanol (TFE) for analyses in a 10 mm pathlength cell. […] The average of six scans was reported.

Another data set concerns the target MDM2 (Homo sapiens, UniProt Q00987). The data set can be described thus: Competitive fluorescence polarization assay for MDM2. To be noted: competitive FP assay, MDM2; for IC50: read-out: IC50 (MDM2); for Ki: read-out: Ki (MDM2). Format: binding. On the technique in general: Polarisation of emitted light reports the rotation of a fluorescent probe.
The next data set concerns the target T1, MDMX (Homo sapiens, UniProt O15151).
T1 sequence (O15151 1-125): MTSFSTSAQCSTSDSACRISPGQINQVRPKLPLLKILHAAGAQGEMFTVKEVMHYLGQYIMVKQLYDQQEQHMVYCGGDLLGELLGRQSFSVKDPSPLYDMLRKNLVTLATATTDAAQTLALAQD
The data set can be described thus: Competitive fluorescence polarization assay for MDMX. Format: binding. Conditions: competitive FP assay; for IC50: read-out: IC50 (MDMX); for Ki: read-out: Ki (MDMX).

Data set [2] in a line: MCF-7 xenograft study, body weight, deaths and tolerability. To be noted: […] 3×/wk iv, 10 mice per group. In kind it is in vivo, mice. An excerpt: A negative control stapled peptide.

MDM2, sequence (Q00987 1-125): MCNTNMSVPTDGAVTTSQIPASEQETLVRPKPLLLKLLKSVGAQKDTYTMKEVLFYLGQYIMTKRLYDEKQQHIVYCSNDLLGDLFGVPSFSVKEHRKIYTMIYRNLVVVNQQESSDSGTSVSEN
Description for MDM2: Dilute 1 mM (in 100% DMSO) of FAM labeled linear peptide with DMSO to 100 μM (dilution 1:10). Then, dilute from 100 μM to 10 μM with water (dilution 1:10) and then dilute with FP buffer from 10 μM to 40 nM (dilution 1:250). This is the working solution which will be a 10 nM concentration in well (dilution 1:4). […] Then, dilute from 5 mM to 500 μM with H2O (dilution 1:10) and then dilute with FP buffer from 500 μM to 20 μM (dilution 1:25).
Dilute 1 mM (in 100% DMSO) of FAM labeled linear peptide with DMSO to 100 μM (dilution 1:10). Then, dilute from 100 μM to 10 μM with water (dilution 1:10) and then dilute with FP buffer from 10 μM to 40 nM (dilution 1:250). This is the working solution which will be a 10 nM concentration in well (dilution 1:4). […] Dilute 10 mM (in 100% DMSO) with DMSO to 5 mM (dilution 1:2). Then, dilute from 5 mM to 500 μM with H2O (dilution 1:10) and then dilute with FP buffer from 500 μM to 20 μM (dilution 1:25). […] Transfer 10 μl of serial diluted unlabeled peptides to each well which is filled with 20 μl of 300 nM of protein. • 7. Add 10 μl of 10 nM (4×) of FAM labeled peptide into each well and incubate for 3 hr to read.
Description for MDMX: Dilute MDMX (In-house, 40 kD) into FP buffer (High salt buffer-200 mM Nacl, 5 mM CHAPS, pH 7.5.) to make 300 nM (2×) working stock solution. • 2. […] Dilute 1 mM (in 100% DMSO) of FAM labeled linear peptide with DMSO to 100 μM (dilution 1:10). Then, dilute from 100 μM to 10 μM with water (dilution 1:10) and then dilute with FP buffer from 10 μM to 40 nM (dilution 1:250). This is the working solution which will be a 10 nM concentration in well (dilution 1:4). Keep the diluted FAM labeled peptide in the dark until use. • 4. […] Dilute 10 mM (in 100% DMSO) with DMSO to 5 mM (dilution 1:2). Then, dilute from 5 mM to 500 μM with H2O (dilution 1:10) and then dilute with FP buffer from 500 μM to 20 μM (dilution 1:25). […] Transfer 10 μl of serial diluted unlabeled peptides to each well which is filled with 20 μl of 300 nM of protein. • 7. Add 10 μl of 10 nM (4×) of FAM labeled peptide into each well and incubate for 3 hr to read.

`CC(=O)N[C@@H](CC(C)C)C(=O)N[C@H](C(=O)N[C@@H](Cc1ccccc1)C(=O)N[C@]1(C)CCCCCCC=CCCC[C@@](C)(C(=O)N[C@@H](CO)C(=O)N[C@@H](C)C(=O)N[C@@H](C)C(N)=O)NC(=O)[C@H](CC(C)C)NC(=O)[C@H](CCC(N)=O)NC(=O)[C@H](C)NC(=O)[C@H](Cc2c[nH]c3ccccc23)NC(=O)[C@H](Cc2ccc(O)cc2)NC(=O)[C@H](C)NC1=O)[C@@H](C)O` [compound 11]: in the data set with Caspase 3, the “caspase 0.3 uM” value is given as 1, the “caspase 3 uM” value is 5, the “caspase 10 uM” value stood at 23 and the “caspase 30 uM” value was 33.5. Besides, in the data set on SJSA-1 cells, the “6.25 uM % Lysed cells (1 h LDH)” value is −2%, the “25 uM % Lysed cells (1 h LDH)” value is 2% and the “50 uM % Lysed cells (1 h LDH)” value was determined as 3%. Also, in data set [1], the “% Helix 50% TFE compared to 50% TFE parent (CD)” value (“% Helix 50% TFE” below) came to 106.1%, the “Molar Ellipticity 50% TFE (222 in 50% TFE)” value (“Molar Ellipticity 50% TFE” below) is listed as −16623.4 deg cm2 dmol-1, the “Molar Ellipticity Benign (222 in 0% TFE)” value is reported as −398.2 deg cm2 dmol-1 and the “% Helix benign compared to 50% TFE parent (CD)” value (“% Helix benign” for short) turned out to be 2.5%.

On to `CC(=O)N[C@@H](CC(C)C)C(=O)N[C@H](C(=O)N[C@@H](Cc1ccccc1)C(=O)N[C@]1(C)CCCCCCC=CCCC[C@@](C)(C(=O)N[C@@H](CO)C(=O)N[C@@H](C)C(=O)N[C@@H](Cc2ccccc2)C(N)=O)NC(=O)[C@H](CC(C)C)NC(=O)[C@H](CCC(N)=O)NC(=O)[C@H](C)NC(=O)[C@H](Cc2c[nH]c3ccccc23)NC(=O)[C@H](Cc2ccc(O)cc2)NC(=O)[C@H](C)NC1=O)[C@@H](C)O` [compound 7] (Ac-LTF[R8]AYWAQL[S5]SAF-NH2; staple 4-11), for which, in the data set on Caspase 3, the “caspase 0.3 uM” value is 0.93, the “caspase 1 uM” value stood at 1.4, the “caspase 3 uM” value came to 5.08 and the “caspase 10 uM” value was found to be 21.7. The “caspase 30 uM” value in the data set with Caspase 3 was found to be 23.96. Also, in the data set on SJSA-1 cells, the “6.25 uM % Lysed cells (1 h LDH)” value turned out to be 0%, the “25 uM % Lysed cells (1 h LDH)” value stood at 0% and the “50 uM % Lysed cells (1 h LDH)” value was 0%. Also, on MDM2, the IC50 was in the range of 10 to 100 nM and the Ki is under 10 nM. Besides, in data set [1], the “% Helix 50% TFE” value was found to be 137.3%, the “Molar Ellipticity 50% TFE” value was −19921.4 deg cm2 dmol-1, the “Molar Ellipticity Benign (222 in 0% TFE)” value was found to be 124 deg cm2 dmol-1 and the “% Helix benign” value is recorded as −0.9%. Moreover, in data set [1], the “Molar Ellipticity TFE-Molar Ellipticity Benign” value is given as −20045.4 deg cm2 dmol-1. In addition, at MDMX, the 50% inhibitory concentration (IC50) was 10 to 100 nM and the Ki is 10 to 100 nM.

As for `CCCC[C@H](NC(=O)[C@H](C)NC(=O)[C@H](C)NC(=O)[C@]1(C)CCC/C=C/CCCCCC[C@@](C)(NC(=O)[C@H](Cc2ccccc2)NC(=O)[C@@H](NC(=O)[C@H](CC(C)C)NC(C)=O)[C@@H](C)O)C(=O)N[C@@H](C)C(=O)N[C@@H](Cc2ccc(O)cc2)C(=O)N[C@@H](Cc2c[nH]c3ccccc23)C(=O)N[C@@H](C)C(=O)N[C@@H](CCC(N)=O)C(=O)N[C@@H](CC(C)C)C(=O)N1)C(=O)N[C@@H](C)C(N)=O` [compound 69], in the data set on Caspase 3, the “caspase 0.3 uM” value amounted to 4.34, the “caspase 1 uM” value is listed as 9.51, the “caspase 3 uM” value is given as 16.39 and the “caspase 10 uM” value was 26.59. In the data set with Caspase 3, the “caspase 30 uM” value turned out to be 26.11. Moreover, in the data set with SJSA-1 cells, the “6.25 uM % Lysed cells (1 h LDH)” value stood at 1%, the “25 uM % Lysed cells (1 h LDH)” value was −0.5% and the “50 uM % Lysed cells (1 h LDH)” value is reported as 5%. Also, on MDM2, the IC50 was in the range of 10 to 100 nM and the Ki was under 10 nM. Moreover, in data set [1], the “% Helix 50% TFE” value was found to be 148.2%, the “Molar Ellipticity 50% TFE” value is given as −21509.7 deg cm2 dmol-1, the “Molar Ellipticity Benign (222 in 0% TFE)” value was −102.6 deg cm2 dmol-1 and the “% Helix benign” value came to 0.7%. For the same compound, at MDMX, the half-maximal inhibitory concentration (IC50) was in the range of 100 to 1000 nM and the inhibition constant (Ki) was in the range of 10 to 100 nM.

For `CC[C@H](C)[C@H](NC(=O)[C@H](C)NC(=O)[C@H](C)NC(=O)[C@]1(C)CCC/C=C/CCCCCC[C@@](C)(NC(=O)[C@H](Cc2ccccc2)NC(=O)[C@@H](NC(=O)[C@H](CC(C)C)NC(C)=O)[C@@H](C)O)C(=O)N[C@@H](C)C(=O)N[C@@H](Cc2ccc(O)cc2)C(=O)N[C@@H](Cc2c[nH]c3ccccc23)C(=O)N[C@@H](C)C(=O)N[C@@H](CCC(N)=O)C(=O)N[C@@H](CC(C)C)C(=O)N1)C(=O)N[C@H](C)C(N)=O` [compound 71], in the data set on Caspase 3, the “caspase 0.3 uM” value is listed as 0.95, the “caspase 1 uM” value was 1.02, the “caspase 3 uM” value was 3.68 and the “caspase 30 uM” value worked out at 23.52. Further, in the data set on SJSA-1 cells, the “6.25 uM % Lysed cells (1 h LDH)” value came out at 0%, the “25 uM % Lysed cells (1 h LDH)” value amounted to 0% and the “50 uM % Lysed cells (1 h LDH)” value was determined as 0%. Further, at MDM2, the IC50 fell in the range of 10 to 100 nM and the Ki is under 10 nM. For the same compound, in data set [1], the “% Helix 50% TFE” value turned out to be 123.7%, the “Molar Ellipticity 50% TFE” value is −17957 deg cm2 dmol-1, the “Molar Ellipticity Benign (222 in 0% TFE)” value is −121.2 deg cm2 dmol-1 and the “% Helix benign” value turned out to be 0.8%. In addition, the “Molar Ellipticity TFE-Molar Ellipticity Benign” value in data set [1] is listed as −17835.9 deg cm2 dmol-1. For the same compound, at MDMX, the IC50 is 100 to 1000 nM and the Ki is 10 to 100 nM.

As to `CC(=O)N[C@@H](CC(C)C)C(=O)N[C@H](C(=O)N[C@@H](Cc1ccccc1)C(=O)N[C@]1(C)CCCCCCC=CCCC[C@@](C)(C(=O)N[C@@H](C)C(=O)N[C@@H](C)C(=O)N[C@@H](C)C(=O)N[C@H](C)C(N)=O)NC(=O)[C@H](CC(C)C)NC(=O)[C@H](CCC(N)=O)NC(=O)[C@H](C)NC(=O)[C@H](Cc2c[nH]c3ccccc23)NC(=O)[C@H](Cc2ccc(O)cc2)NC(=O)[C@H](C)NC1=O)[C@@H](C)O` (single isomer, unassigned) [compound 230], in the data set on Caspase 3, the “caspase 0.3 uM” value was determined as 1, the “caspase 3 uM” value is reported as 2, the “caspase 10 uM” value amounted to 3 and the “caspase 30 uM” value was 11. In addition, in the data set with SJSA-1 cells, the “6.25 uM % Lysed cells (1 h LDH)” value stood at 0.5%, the “25 uM % Lysed cells (1 h LDH)” value was determined as 0% and the “50 uM % Lysed cells (1 h LDH)” value is given as 3%. Moreover, at MDM2, the 50% inhibitory concentration (IC50) was under 10 nM and the inhibitory constant (Ki) is under 10 nM. In addition, in data set [1], the “% Helix 50% TFE” value was 123.9%, the “Molar Ellipticity 50% TFE” value is on record as −17974 deg cm2 dmol-1, the “Molar Ellipticity Benign (222 in 0% TFE)” value is −213.2 deg cm2 dmol-1 and the “% Helix benign” value came to 1.5%. The “Molar Ellipticity TFE-Molar Ellipticity Benign” value in data set [1] is −17760.8 deg cm2 dmol-1. Besides, at MDMX, the IC50 lay within 10 to 100 nM and the inhibition constant (Ki) was under 10 nM.

For `CC(=O)N[C@@H](CC(C)C)C(=O)N[C@H](C(=O)N[C@@H](Cc1ccccc1)C(=O)N[C@]1(C)CCCCCCC=CCCC[C@@](C)(C(=O)N[C@@H](C)C(=O)N[C@@H](C)C(=O)N[C@@H](C)C(=O)N[C@@H](C)C(=O)N[C@H](C)C(N)=O)NC(=O)[C@H](CC(C)C)NC(=O)[C@H](CCC(N)=O)NC(=O)[C@H](C)NC(=O)[C@H](Cc2c[nH]c3ccccc23)NC(=O)[C@H](Cc2ccc(O)cc2)NC(=O)[C@H](C)NC1=O)[C@@H](C)O` [compound 233], in the data set on Caspase 3, the “caspase 0.3 uM” value is recorded as 6, the “caspase 1 uM” value was found to be 8, the “caspase 3 uM” value was 17 and the “caspase 10 uM” value is on record as 22. Moreover, in the data set on Caspase 3, the “caspase 30 uM” value came out at 23. In the data set with SJSA-1 cells, the “6.25 uM % Lysed cells (1 h LDH)” value turned out to be 2.5%, the “25 uM % Lysed cells (1 h LDH)” value is listed as 3.5% and the “50 uM % Lysed cells (1 h LDH)” value turned out to be 6%. In data set [1], the “% Helix 50% TFE” value stood at 131.2%, the “Molar Ellipticity 50% TFE” value is given as −19032.6 deg cm2 dmol-1, the “Molar Ellipticity Benign (222 in 0% TFE)” value was −477.9 deg cm2 dmol-1 and the “% Helix benign” value is 3.3%. The “Molar Ellipticity TFE-Molar Ellipticity Benign” value in data set [1] is reported as −18554.7 deg cm2 dmol-1.

As to `CC[C@H](C)[C@H](NC(=O)[C@H](C)NC(=O)[C@H](C)NC(=O)[C@]1(C)CCC/C=C/CCCCCC[C@@](C)(NC(=O)[C@H](Cc2ccccc2)NC(=O)[C@@H](NC(=O)[C@H](CC(C)C)NC(C)=O)[C@@H](C)O)C(=O)N[C@@H](CCC(=O)O)C(=O)N[C@@H](Cc2ccc(C(=O)O)cc2)C(=O)N[C@@H](Cc2c[nH]c3ccccc23)C(=O)N[C@@H](C)C(=O)N[C@@H](CCC(N)=O)C(=O)N[C@@H](CC2CCC2)C(=O)N1)C(=O)N[C@H](C)C(N)=O` [SP249, Ac-L T F $er8 E F4coohWAQCba $e AA-I-a-NH2] (Ac-LTF[R8]E[Phe(4-COOH)]WAQ[Cba][S5]AAI[dA]-NH2; staple (E) 4-11), the “mice died during treatment” value in data set [2] stood at 4.

The record behind these values is patent publication US8927500B2, “Peptidomimetic macrocycles” (Aileron Therapeutics, Inc., priority 2012, dated 2015).
